# Laboratory results: ChEMBL document CHEMBL4825707, “Quantum mechanical study on the activation mechanism of human carbonic anhydrase VII cluster model with bis-histamine schiff bases and bis-spinaceamine derivatives” (Bioorg Med Chem, 2021)
# Molecular target: Carbonic anhydrase 7 (Homo sapiens) (UniProt P43166)
# Test: Activation of human carbonic anhydrase VII by stopped flow CO2 hydrase assay
# Conditions: Brain, filed as activator
# Chain of Carbonic anhydrase 7 (Homo sapiens) (P43166 whole entry): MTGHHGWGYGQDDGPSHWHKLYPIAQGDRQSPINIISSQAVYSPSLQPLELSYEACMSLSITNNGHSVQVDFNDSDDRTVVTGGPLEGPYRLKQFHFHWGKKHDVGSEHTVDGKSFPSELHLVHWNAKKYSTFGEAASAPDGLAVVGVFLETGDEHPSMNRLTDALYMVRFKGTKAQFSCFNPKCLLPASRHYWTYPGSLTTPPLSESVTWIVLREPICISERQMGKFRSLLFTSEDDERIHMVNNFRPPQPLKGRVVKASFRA
row,Structure (SMILES),Ka
1,C(=N\CCc1c[nH]cn1)/c1ccc(/C=N/CCc2c[nH]cn2)cc1,9.02 µM
2,C(=N/CCc1c[nH]cn1)/c1cccc(/C=N/CCc2c[nH]cn2)c1,18.7 µM
3,c1cc(C2NCCc3nc[nH]c32)cc(C2NCCc3nc[nH]c32)c1 (stereo not drawn),0.039 µM
4,c1nc2c([nH]1)C(c1ccc(C3NCCc4nc[nH]c43)o1)NCC2 (stereo not drawn),0.035 µM
5,C(=N/CCc1c[nH]cn1)/c1ccccc1/C=N/CCc1c[nH]cn1,21.3 µM
6,c1nc2c([nH]1)C(c1ccc(C3NCCc4nc[nH]c43)cc1)NCC2 (stereo not drawn),0.032 µM
7,NCCc1c[nH]cn1,37.6 µM
8,C(=N/CCc1c[nH]cn1)/c1ccc(/C=N/CCc2c[nH]cn2)o1,0.085 µM
